ChEMBL document CHEMBL3822396 (J Med Chem, 2016)
Calls of active or inactive are those of the source. The calls are words filed in the database; no cut-off is given here.

Tests used:
Mus musculus [1] = test: Antiinflammatory activity in C57Bl/6 mouse assessed as inhibition of LPS-induced serum KC level at 10 mg/kg, po for 15 mins prior to LPS-challenge measured after 2.5 hrs; type: functional, organism-based
[2] = Volume of distribution at steady state in C57BL/6 mouse at 2 mg/kg, po or 1 mg/kg, iv by LC-MS/MS analysis; type: ADME, organism-based; conditions: in vivo, read-out: Vdss
[3] = biological target: Protein-tyrosine kinase 6 (Homo sapiens) (UniProt Q13882); test: Inhibition of human full length N-terminal GST-tagged BRK expressed in baculovirus expression system at 1 uM
Mus musculus [4] = test: Antiinflammatory activity in C57Bl/6 mouse assessed as inhibition of FK156-induced serum KC level at 0.1 to 100 mg/kg, po for 15 mins prior to FK156-challenge measured after 2.5 hrs by FACS analysis; type: functional, organism-based
[5] = Cmax in C57BL/6 mouse at 2 mg/kg, po by LC-MS/MS analysis; type: ADME, organism-based; design: dose 2 mg/kg, route oral; conditions: in vivo
[6] = Oral bioavailability in C57BL/6 mouse at 2 mg/kg by LC-MS/MS analysis; type: ADME, organism-based; conditions: in vivo
[7] = biological target: T1, Nucleotide-binding oligomerization domain-containing protein 1 (Homo sapiens) (UniProt Q9Y239); test: Activation of NOD1 in human monocytes assessed as inhibition of ieDAP-stimulated IL8 production preincubated for 30 mins prior to ieDAP stimulation at 1 uM measured after 6 hrs by immunoassay; type: cell-based
T1 sequence (whole entry): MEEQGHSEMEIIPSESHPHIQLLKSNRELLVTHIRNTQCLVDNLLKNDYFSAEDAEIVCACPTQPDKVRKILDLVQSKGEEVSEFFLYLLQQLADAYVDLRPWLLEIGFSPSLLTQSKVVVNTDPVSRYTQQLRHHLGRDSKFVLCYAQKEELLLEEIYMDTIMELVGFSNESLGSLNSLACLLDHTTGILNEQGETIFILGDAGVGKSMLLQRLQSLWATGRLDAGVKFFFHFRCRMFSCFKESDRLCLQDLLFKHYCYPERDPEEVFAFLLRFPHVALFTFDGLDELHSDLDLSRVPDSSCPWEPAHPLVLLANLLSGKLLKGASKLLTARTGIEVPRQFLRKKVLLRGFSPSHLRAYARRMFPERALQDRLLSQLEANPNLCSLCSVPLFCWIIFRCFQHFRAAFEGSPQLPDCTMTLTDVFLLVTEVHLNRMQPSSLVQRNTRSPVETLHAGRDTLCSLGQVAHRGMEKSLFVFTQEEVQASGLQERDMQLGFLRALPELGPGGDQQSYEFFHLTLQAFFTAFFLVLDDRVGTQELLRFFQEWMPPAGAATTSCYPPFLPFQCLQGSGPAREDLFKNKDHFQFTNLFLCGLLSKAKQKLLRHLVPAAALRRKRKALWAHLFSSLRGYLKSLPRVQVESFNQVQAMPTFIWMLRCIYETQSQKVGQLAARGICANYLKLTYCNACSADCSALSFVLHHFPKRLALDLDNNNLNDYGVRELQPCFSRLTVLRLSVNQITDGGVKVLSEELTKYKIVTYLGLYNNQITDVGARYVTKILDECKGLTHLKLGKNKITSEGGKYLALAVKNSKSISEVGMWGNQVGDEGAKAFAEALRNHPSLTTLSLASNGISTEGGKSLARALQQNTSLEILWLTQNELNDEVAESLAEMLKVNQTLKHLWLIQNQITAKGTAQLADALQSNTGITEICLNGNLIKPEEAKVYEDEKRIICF

[8] = Oral bioavailability in Sprague-Dawley rat at 2 mg/kg by LC-MS/MS analysis; type: ADME, organism-based; conditions: in vivo
[9] = biological target: T2, Aurora kinase A (Homo sapiens) (UniProt O14965); test: Inhibition of human full length N-terminal GST-tagged aurora-a expressed in baculovirus expression system at 1 uM
T2 sequence (whole entry): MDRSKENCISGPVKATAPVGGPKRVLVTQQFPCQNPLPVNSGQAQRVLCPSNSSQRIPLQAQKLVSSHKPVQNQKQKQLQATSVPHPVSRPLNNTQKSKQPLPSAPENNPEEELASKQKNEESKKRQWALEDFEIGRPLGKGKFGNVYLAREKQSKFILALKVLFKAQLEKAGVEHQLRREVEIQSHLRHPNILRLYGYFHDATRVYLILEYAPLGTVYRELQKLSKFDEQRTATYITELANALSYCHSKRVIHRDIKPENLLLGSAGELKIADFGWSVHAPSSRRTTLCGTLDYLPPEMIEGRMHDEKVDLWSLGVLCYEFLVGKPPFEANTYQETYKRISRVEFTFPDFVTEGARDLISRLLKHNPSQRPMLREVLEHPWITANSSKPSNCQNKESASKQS

Intestinal mucosa [10] = test: Inhibition of TNFalpha production in intestinal mucosa derived from Crohn's disease patient measured after 24 hrs by sandwich ELISA; type: functional, tissue-based; conditions: Homo sapiens
[11] = biological target: Nucleotide-binding oligomerization domain-containing protein 2 (Homo sapiens) (UniProt Q9HC29); test: Activation of NOD2 in human monocytes assessed as inhibition of MDP-stimulated TNF-alpha production preincubated for 30 mins prior to MDP stimulation measured after 6 hrs by immunoassay; type: cell-based
Intestinal mucosa [12] = test: Inhibition of IL6 production in intestinal mucosa derived from Crohn's disease patient measured after 24 hrs by sandwich ELISA; type: functional, tissue-based; conditions: Homo sapiens
[13] = biological target: Toll-like receptor 4 (Homo sapiens) (UniProt O00206); test: Activation of TLR4 receptor in human monocytes assessed as inhibition of LPS-stimulated TNF-alpha production preincubated for 30 mins prior to LPS stimulation at 1 uM measured after 6 hrs by immunoassay; type: cell-based
[14] = biological target: Toll-like receptor 2 (Homo sapiens) (UniProt O60603); test: Activation of TLR2 receptor in human monocytes assessed as inhibition of Pam2Csk4-stimulated TNF-alpha production preincubated for 30 mins prior to Pam2Csk4 stimulation at 1 uM measured after 6 hrs by immunoassay; type: cell-based
Intestinal mucosa [15] = test: Inhibition of TNFalpha production in intestinal mucosa derived from ulcerative colitis patient measured after 24 hrs by sandwich ELISA; type: functional, tissue-based; conditions: Homo sapiens
[16] = AUC in C57BL/6 mouse at 2 mg/kg, po by LC-MS/MS analysis; type: ADME, organism-based; conditions: in vivo
[17] = Clearance in C57BL/6 mouse at 2 mg/kg, po or 1 mg/kg, iv by LC-MS/MS analysis; type: ADME, organism-based; conditions: in vivo
[18] = Half life in Sprague-Dawley rat at 2 mg/kg, po and 1 mg/kg, iv by LC-MS/MS analysis; type: ADME, organism-based; conditions: in vivo

Toll-like receptor 4 (Homo sapiens), sequence (O00206 whole entry): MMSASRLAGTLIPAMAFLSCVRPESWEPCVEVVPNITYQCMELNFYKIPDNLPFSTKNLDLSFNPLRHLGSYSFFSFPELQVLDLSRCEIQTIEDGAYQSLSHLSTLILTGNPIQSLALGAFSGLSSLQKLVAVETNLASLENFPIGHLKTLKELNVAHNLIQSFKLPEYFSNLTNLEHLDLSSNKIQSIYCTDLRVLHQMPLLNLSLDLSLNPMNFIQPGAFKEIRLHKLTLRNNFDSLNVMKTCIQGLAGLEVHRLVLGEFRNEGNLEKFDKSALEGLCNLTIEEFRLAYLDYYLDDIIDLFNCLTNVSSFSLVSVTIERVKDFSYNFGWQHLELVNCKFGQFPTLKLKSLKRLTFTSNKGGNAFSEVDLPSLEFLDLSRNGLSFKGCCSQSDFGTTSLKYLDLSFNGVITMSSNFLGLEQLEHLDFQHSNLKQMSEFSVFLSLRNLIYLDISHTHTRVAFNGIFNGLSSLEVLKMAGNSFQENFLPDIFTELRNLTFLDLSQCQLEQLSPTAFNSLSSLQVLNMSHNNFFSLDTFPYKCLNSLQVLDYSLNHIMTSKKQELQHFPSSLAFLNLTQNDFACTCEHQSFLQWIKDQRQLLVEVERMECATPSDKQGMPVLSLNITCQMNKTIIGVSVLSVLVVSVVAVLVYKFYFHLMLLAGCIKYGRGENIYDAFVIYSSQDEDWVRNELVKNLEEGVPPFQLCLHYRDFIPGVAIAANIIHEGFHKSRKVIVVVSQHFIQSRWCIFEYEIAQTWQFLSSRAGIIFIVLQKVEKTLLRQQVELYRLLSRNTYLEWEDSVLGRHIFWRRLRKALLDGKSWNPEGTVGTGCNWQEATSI
Nucleotide-binding oligomerization domain-containing protein 2 (Homo sapiens), sequence (Q9HC29 whole entry, the tested form may be a part): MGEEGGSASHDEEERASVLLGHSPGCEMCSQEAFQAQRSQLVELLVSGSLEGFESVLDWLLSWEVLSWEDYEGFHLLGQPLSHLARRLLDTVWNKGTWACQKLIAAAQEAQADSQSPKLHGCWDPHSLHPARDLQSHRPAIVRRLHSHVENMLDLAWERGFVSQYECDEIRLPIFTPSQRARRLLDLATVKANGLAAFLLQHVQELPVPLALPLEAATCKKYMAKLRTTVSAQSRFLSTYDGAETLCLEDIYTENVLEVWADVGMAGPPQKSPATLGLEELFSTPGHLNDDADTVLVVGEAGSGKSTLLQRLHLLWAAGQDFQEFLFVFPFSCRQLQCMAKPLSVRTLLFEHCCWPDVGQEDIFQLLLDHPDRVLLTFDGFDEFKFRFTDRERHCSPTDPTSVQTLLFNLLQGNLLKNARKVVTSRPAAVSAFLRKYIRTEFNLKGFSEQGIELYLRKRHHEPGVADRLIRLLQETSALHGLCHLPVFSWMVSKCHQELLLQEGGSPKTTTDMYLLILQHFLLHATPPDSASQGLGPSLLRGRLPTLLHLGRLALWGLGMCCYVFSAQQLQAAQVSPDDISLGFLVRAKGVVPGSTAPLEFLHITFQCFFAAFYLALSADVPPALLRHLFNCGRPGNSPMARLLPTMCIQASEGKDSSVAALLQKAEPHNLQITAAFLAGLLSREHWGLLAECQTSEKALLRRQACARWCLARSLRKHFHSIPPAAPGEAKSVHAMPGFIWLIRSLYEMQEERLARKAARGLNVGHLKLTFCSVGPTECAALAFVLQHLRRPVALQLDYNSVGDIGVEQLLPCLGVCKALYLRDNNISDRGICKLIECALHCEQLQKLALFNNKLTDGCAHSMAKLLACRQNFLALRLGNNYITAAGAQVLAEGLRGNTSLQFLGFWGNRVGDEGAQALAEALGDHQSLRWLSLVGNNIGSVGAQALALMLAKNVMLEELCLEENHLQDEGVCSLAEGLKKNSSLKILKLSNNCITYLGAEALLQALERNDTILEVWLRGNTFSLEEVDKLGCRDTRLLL
Toll-like receptor 2 (Homo sapiens), sequence (O60603 whole entry): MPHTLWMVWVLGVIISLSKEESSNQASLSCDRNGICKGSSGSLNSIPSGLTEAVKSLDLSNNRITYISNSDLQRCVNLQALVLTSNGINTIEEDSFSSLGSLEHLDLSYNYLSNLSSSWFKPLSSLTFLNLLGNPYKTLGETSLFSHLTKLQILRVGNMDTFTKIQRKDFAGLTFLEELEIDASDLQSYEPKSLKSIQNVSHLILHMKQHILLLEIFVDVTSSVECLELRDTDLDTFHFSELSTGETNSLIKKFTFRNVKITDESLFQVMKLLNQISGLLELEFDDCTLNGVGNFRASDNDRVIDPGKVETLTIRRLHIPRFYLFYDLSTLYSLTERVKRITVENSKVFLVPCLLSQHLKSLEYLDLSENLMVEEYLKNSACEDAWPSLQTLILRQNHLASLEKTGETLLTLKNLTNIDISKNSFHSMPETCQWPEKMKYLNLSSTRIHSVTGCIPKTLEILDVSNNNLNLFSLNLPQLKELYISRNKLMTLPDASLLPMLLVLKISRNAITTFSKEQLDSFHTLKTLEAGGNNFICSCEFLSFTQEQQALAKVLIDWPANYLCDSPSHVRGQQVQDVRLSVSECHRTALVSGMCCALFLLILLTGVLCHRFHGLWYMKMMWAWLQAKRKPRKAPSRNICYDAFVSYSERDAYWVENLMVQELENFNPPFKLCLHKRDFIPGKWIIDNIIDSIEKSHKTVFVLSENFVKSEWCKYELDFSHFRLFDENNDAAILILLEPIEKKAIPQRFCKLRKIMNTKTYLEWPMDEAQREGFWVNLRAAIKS
Protein-tyrosine kinase 6 (Homo sapiens), sequence (Q13882 whole entry, looked up): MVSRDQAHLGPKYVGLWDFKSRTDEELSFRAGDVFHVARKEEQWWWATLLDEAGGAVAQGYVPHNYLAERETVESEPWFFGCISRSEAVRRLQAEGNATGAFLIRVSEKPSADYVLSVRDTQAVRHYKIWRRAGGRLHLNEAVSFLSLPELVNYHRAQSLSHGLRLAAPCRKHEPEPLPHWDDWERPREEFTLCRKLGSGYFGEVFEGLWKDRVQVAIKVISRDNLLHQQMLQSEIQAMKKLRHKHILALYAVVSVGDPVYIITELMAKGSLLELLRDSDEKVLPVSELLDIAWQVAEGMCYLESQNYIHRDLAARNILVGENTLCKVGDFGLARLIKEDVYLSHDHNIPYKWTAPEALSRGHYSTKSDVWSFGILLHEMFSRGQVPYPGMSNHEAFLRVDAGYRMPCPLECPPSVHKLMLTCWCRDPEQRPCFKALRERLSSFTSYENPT

What does the source list for `CC(C)(C)S(=O)(=O)c1ccc2nccc(Nc3n[nH]c4ccc(F)cc34)c2c1`?
inhibition (Mus musculus [1]): inactive; Vd [2]: 1.2 L/kg; inhibition [3]: 30%; inhibition (Mus musculus [4]): Active; Cmax [5]: 340 ng/mL; bioavailability [6]: 34%; inhibition [7]: Active; bioavailability [8]: 39%; inhibition [9]: 30%; inhibition (Intestinal mucosa [10]): Dose-dependent effect; inhibition [11]: Active; inhibition (Intestinal mucosa [12]): Dose-dependent effect; inhibition [13]: Active; inhibition [14]: Active; inhibition (Intestinal mucosa [15]): Dose-dependent effect; AUC [16]: 860 ng·h/mL; clearance [17]: 13 mL/min/kg; half-life [18]: 3.1 h
